For assay [1], the target named is Human RNR (human M1 subunit and human M2 subunit) (Homo sapiens (Human), UniProt P23921). The assay is described as follows: Human RNR inhibition effect (formation of dCDP from CDP, HPLC). It counts as biochemical. How it is done: The inhibitory activity against the ribonucleotide reduction reaction (hereinafter referred to as RNR reaction) of the test compound was determined by measuring the formation of deoxycytidine diphosphate (hereinafter referred to as dCDP) from cytidine diphosphate (hereinafter referred to as CDP) by the following method.
Human M1 subunit and human M2 subunit (mutant lacking amino terminal 59 amino acids), which are fused a histidine tag at the amino terminus, are overexpressed in Escherichia coli and are solubilized after collection, and histidine tagged human M1 and M2 proteins were purified on a nickel chelate column.
First, test compounds were serially diluted with DMSO. Next, human M1 protein and human M2 protein were added to an aqueous albumin solution derived from 0.02% fetal bovine serum, a DMSO solution of the compound of the present invention or the control DMSO solution (final concentration of DMSO was 1%) was added, and the mixture was allowed to stand for 20 minutes. Thereafter, the reaction buffer [50 mM HEPES buffer (pH 7.2) at the final concentration, 4 mM magnesium acetate at the final concentration, 100 mM potassium chloride at the final concentration, 6 mM dithiothreitol at the final concentration, 2 mM adenosine triphosphate at the final concentration, 0.24 mM nicotinamide adenine dinucleotide phosphate at final concentration] and 10 μM CDP at the final concentration were added and incubated at 37° C. for 30 minutes to perform RNR reaction. Immediately after the reaction, the reaction was stopped by heating at 100° C. for 15 minutes, followed by centrifugation at 10,000 rpm for 10 minutes. After the centrifugation, a portion (5 μL) of the resulting supernatant was analyzed with a high performance liquid chromatography (Shimadzu Corporation, Prominence) using Shim-pack XR-ODS (manufactured by Shimadzu GLC Co., 3.0×100 mm).

The test system of another assay is HCC 1806 cells. The assay is described as follows: Cell proliferation inhibitory effect on human breast cancer cell line (crystal violet, 72 hours). The following applies: Homo sapiens, HCC1806, 72 h, read-out: Cell growth suppression IC50. It is filed as cell-based. The procedure, abridged:
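Cells were seeded at 2,000/well in RPMI-1640 with 10% FBS and grown 1 day, then exposed to compound for 72 h at 37° C, 5% CO2. After glutaraldehyde fixation and 0.05% crystal violet staining, extracted dye was read at 540 nm. IC50 (μM) came from growth inhibition relative to untreated and cell-free wells.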

Where [2] appears, read: human M1 and M2 subunits, formation of dCDP from CDP, read-out: RNR Enzyme inhibitory activity IC50.

Where two headings read alike, the source gives them in different places.

Human RNR (human M1 subunit and human M2 subunit), sequence (P23921 whole entry, the tested form may be a part): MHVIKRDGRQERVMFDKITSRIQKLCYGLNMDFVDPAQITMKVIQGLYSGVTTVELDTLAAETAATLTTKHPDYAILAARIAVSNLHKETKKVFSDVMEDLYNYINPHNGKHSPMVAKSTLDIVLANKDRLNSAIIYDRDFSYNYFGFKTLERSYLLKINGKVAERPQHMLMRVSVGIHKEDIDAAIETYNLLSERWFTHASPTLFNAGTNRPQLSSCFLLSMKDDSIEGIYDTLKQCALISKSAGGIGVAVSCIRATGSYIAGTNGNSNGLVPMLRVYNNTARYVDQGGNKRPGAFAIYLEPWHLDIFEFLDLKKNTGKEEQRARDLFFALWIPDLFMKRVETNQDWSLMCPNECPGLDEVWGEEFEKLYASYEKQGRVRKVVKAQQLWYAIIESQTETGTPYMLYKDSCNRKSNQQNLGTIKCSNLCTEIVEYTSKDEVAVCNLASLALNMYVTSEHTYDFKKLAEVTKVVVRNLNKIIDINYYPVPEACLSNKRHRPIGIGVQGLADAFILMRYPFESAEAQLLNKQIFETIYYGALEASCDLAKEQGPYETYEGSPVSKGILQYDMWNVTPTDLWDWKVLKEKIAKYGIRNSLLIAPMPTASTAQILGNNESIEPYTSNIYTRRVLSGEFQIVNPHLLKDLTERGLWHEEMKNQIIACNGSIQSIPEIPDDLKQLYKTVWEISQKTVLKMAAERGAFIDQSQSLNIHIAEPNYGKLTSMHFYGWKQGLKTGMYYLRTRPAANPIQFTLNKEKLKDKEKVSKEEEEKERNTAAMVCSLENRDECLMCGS

`Cc1ccc(F)c([C@@H](C)[C@H](NS(=O)(=O)c2ccc(C(F)(F)F)c3c2OCCC3(C)O)c2n[nH]c(=O)o2)c1C` (single isomer, unassigned) [Example 225A]: the IC50 in assay [1] (setting [2]) was 0.12 µM; with HCC 1806 cells it was 0.6 µM.
Regarding `Cc1ccc(S(=O)(=O)NC(Cc2ccccc2)c2nnc(S)o2)cc1` (stereo not shown) [Comparative Example 1, reference compound], in assay [1] (human M1 and M2 proteins, 10 μM CDP, 37° C. for 30 minutes, read-out: IC50 (concentration inhibiting the RNR reaction by 50%)), the IC50 was 43 µM.
Take `COc1cc(Cl)ccc1S(=O)(=O)N[C@H](c1n[nH]c(=O)o1)[C@H](C)c1c(F)ccc(-c2ccn(C)n2)c1C` [Example 305, 4-chloro-N-((1S,2R)-2-(6-fluoro-2-methyl-3-(1-methyl-1H-pyrazol-3-yl)phenyl)-1-(5-oxo-4,5-dihydro-1,3,4-oxadiazol-2-yl)propyl)-2-methoxybenzenesulfonamide]: the IC50 in assay [1] (setting [2]) is 0.24 µM.

The values above are taken from patent US10889555B2, “Sulfonamide compound or salt thereof” (Taiho Pharmaceutical Co., Ltd., priority 2016, dated 2021).
